{
  "source": "patent US20180044672A1",
  "about": "“Pericyte Long Non-Coding RNAs” (Johann Wolfgang Goethe-Universität Frankfurt am Main, priority 2015, published 2018)",
  "key": {"[1]": {"system": "human pericytes (PC)", "assay": "PC viability by MTT assay"}, "[2]": {"assay": "PC viability by MTT assay", "conditions": "human"}, "[3]": {"system": "TYKRIL", "assay": "TYKRIL expression in human pericytes by qRT-PCR", "assay_type": "cell-based", "conditions": "for TYKRIL expression levels in PC: LNA GapmeR 50 nmol/l, 48 h after transfection, vs scrambled control", "experimental": "(§1) Cells were grown to 60-80% confluency and were transfected for 4 hours in Optimem Medium using Lipfectamine (both from Life technologies, Carlsbad, Calif., USA) with 50 nmol/l LNA GapmeR (Exiqon, Vedbaek, Denmarkt) according to the manufacturer's instructions. Controls were transfected with scrambled LNA GapmeR control. Four hours after LNA Gapmer Transfection, Optimem Medium was exchanged with normal cell culture medium. All experimental manipulations were carried out 48 hours after transfection.\n(§2) Total RNA from PC was isolated using RNeasy Mini Kits (Qiagen, Hilden, Germany) as recommended by the manufacturer including a DNA digestion step. Nuclear and cytosolic fractions were prepared as documented elsewhere 34. 500-1000 ng RNA was reversely transcribed with random hexamer primers (ThermoScientific, Waltham, USA) by MulV reverse transcriptase (Lifetechnologies) in 40 μl reaction volume. Fast SYBR green or SYBR green (Applied Biosystems, Forster City, USA) and cDNA were used for qRT-PCR. A Viia7 or StepOnePlus from Applied Biosystems was used. CT values were normalized against ribosomal RPLP0. Relative gene expression levels were determined by the formula: 2-deltaCT; deltaCT=CTtarget−CTcontrol."}, "[4]": {"system": "PDGFRβ", "assay": "PDGFRβ expression in human pericytes by qPCR and immunoblotting", "assay_type": "cell-based", "conditions": "for PDGFRβ mRNA (qPCR) / PDGFRβ protein levels (immunoblotting): upon TYKRIL silencing by LNA GapmeRs", "experimental": "as §1, §2\nStandard immunofluorescent staining procedures were carried out as described before 35-37. In brief, cells were washed with PBS, fixed in ice cold acetone for about 5 minutes. After washing cells were blocked for 2 hours at room temperature with 5% donkey serum (Dianova, Hambur, Germany), 0.3% Triton X-100 in PBS. Primary antibodies were incubated overnight in PBS containing 2% BSA, 0.1% Triton X-100. Secondary antibodies and Hoechst (Lifetechnologies, 1/1000) were incubated in 2% BSA, 0.1% azide for another 2 hours. For SDS Page protein isolation cells were washed once with ice-cold PBS, snap frozen in liquid nitrogen and RIPA-buffer (Thermo Scientific, Rockford, USA) supplemented with protease inhibitor (Roche Diagnostics) was applied. Cells were then scraped off with an ice cold rubber policeman and incubated for 45 minutes on ice under agitation. Subsequently probes were centrifuged for 10 minutes at 5000 RPM at 4° C. The supernatant was transferred into ice cold vials and protein concentration was determined by performing a Bradford assay with RotiQuant (Carl Roth, Karlsruhe, Germany) according to the manufacturer's instructions. Protein samples were mixed with an equal volume of 2× Laemmli buffer (Sigma Aldrich). Gels (Mini-Protean TGX, BioRad) were loaded with 20-30 μg protein per lane. SDS page was performed for 1 hour at 100V in […] (BioRad). Western Blotting was performed using a Pierce G2 Fast Blotter according to the manufacturer's instructions (ThermoScientific)."}, "[5]": {"system": "human pericytes", "assay": "RNA Seq upon TYKRIL knockdown in pericytes", "assay_type": "cell-based", "conditions": "upon TYKRIL knockdown with LNA GapmeRs", "experimental": "RNA deep sequencing was performed by analyzing ribosomal depleted total RNA from human Pericytes. RNA was isolated using a RNeasy Mini Kit (Qiagen) according to the manufacturer's instructions including DNA digestion. Subsequently RNA was fragmented and primed for cDNA synthesis. Libraries were created using a TruSeq RNA Ribo-Zero Globin kit (from Illumina) as recommended by the manufacturer. A Illumina HiSeq 2000 flowcell was used for sequencing. lncRNA annotation was done based on the NONCODE database (noncode.org)."}, "[6]": {"system": "mTYKRIL", "assay": "Murine TYKRIL knockdown in vivo, mTYKRIL in organs", "design": "species or system mouse", "conditions": "mice, 20 mg/kg intraperitoneally, single shot, 48 h", "experimental": "(§3) HPLC purified. LNA GapmeRs were injected intraperitoneally at a dosage of 20 mg/kg bodyweight. 48 hours after injection, mice were sacrificed by isoflurane overdose and cardially perfused with PBS at a steady flow of 9 ml/min. Subsequently organs were removed and snap forzen for RNA and protein isolation."}, "[7]": {"system": "PDGFRβ", "assay": "Murine TYKRIL knockdown in vivo, PDGFRβ in organs", "design": "species or system mouse", "conditions": "mice, 20 mg/kg intraperitoneally, single shot, 48 h", "experimental": "as §3"}, "[8]": {"conditions": "p53 gain of function by doxorubicin treatment"}},
  "note": "Entries after “also recorded” stand apart in the source; their conditions may differ.",
  "data": [
    {"compound": "Cc1ccc(NC(=O)c2ccc(CN3CCN(C)CC3)cc2)cc1Nc1nccc(-c2cccnc2)n1", "note": "[Imatinib]", "values": [
      {"measurement": "PC viability (MTT), in words", "setting": "[1]; imatinib 1 μM, 24 h, compared with solvent PBS", "value": "significantly decreased PC viability"},
      {"measurement": "PC viability (MTT), in words", "setting": "[1]; imatinib upon TYKRIL silencing, compared with scramble control transfected PC", "value": "significantly more reduced"},
      {"measurement": "cytotoxicity at 24 h, 1 μM", "setting": "[2]; human pericytes (PC)", "value": "~20", "unit": "%"},
      {"measurement": "cytotoxicity", "setting": "[2]; human pericytes (PC) with TYKRIL silenced by LNA GapmeR", "value": "~45", "unit": "%"}
    ]},
    {"compound": "COc1cccc2c1C(=O)c1c(O)c3c(c(O)c1C2=O)C[C@@](O)(C(=O)CO)C[C@@H]3O[C@H]1C[C@H](N)[C@H](O)[C@H](C)O1", "note": "[doxorubicin, reference compound]", "values": [
      {"measurement": "TYKRIL expression", "setting": "[3]; [8]", "value": "loss of TYKRIL; also recorded: downregulation"},
      {"measurement": "PDGFRβ on RNA level", "setting": "[4]; [8]", "value": "downregulation of PDGFRβ; also recorded: significant decline"},
      {"measurement": "PDGFRβ on protein level", "setting": "[4]; [8]", "value": "downregulation of PDGFRβ; also recorded: significant decline"}
    ]},
    {"compound": "LNA#1: LNA GapmeR against human TYKRIL, 5′-3′: AGAGGTGATTAAGGT (LNA gapmer: LNA flanks around DNA gap, pattern and linkages not given here)", "values": [
      {"measurement": "Pericyte differentiation state by RNA Seq", "setting": "[5]", "value": "de-differentiation of Pericytes"},
      {"measurement": "TYKRIL expression levels in PC", "setting": "[3]", "value": "significant reduction of TYKRIL"},
      {"measurement": "PDGFRβ mRNA (qPCR)", "setting": "[4]", "value": "loss of PDGFRβ"},
      {"measurement": "PDGFRβ protein levels (immunoblotting)", "setting": "[4]", "value": "loss of PDGFRβ"}
    ]},
    {"compound": "LNA#3: LNA GapmeR against human TYKRIL, 5′-3′: AGTGAAGGACAGAGGC (LNA gapmer: LNA flanks around DNA gap, pattern and linkages not given here)", "values": [
      {"measurement": "Pericyte differentiation state by RNA Seq", "setting": "[5]", "value": "de-differentiation of Pericytes"},
      {"measurement": "TYKRIL expression levels in PC", "setting": "[3]", "value": "significant reduction of TYKRIL"},
      {"measurement": "PDGFRβ mRNA (qPCR)", "setting": "[4]", "value": "loss of PDGFRβ"},
      {"measurement": "PDGFRβ protein levels (immunoblotting)", "setting": "[4]", "value": "loss of PDGFRβ"}
    ]},
    {"compound": "mLNA#4: murine TYKRIL LNA Gapmer, SEQ ID NO: 12, GTCTGCACTTAATTAA (LNA gapmer, pattern and linkages not given here; listed as Mus musculus)", "values": [
      {"measurement": "mTYKRIL (qPCR) in heart", "setting": "[6]", "value": "downregulation"},
      {"measurement": "mTYKRIL in kidneys", "setting": "[6]; 20 mg/kg", "value": "decreased; also recorded: downregulation"},
      {"measurement": "mTYKRIL in liver", "setting": "[6]; 20 mg/kg", "value": "decreased; also recorded: downregulation"},
      {"measurement": "mTYKRIL in lungs", "setting": "[6]; 20 mg/kg", "value": "decreased; also recorded: downregulation"},
      {"measurement": "mTYKRIL in spleen", "setting": "[6]; 20 mg/kg", "value": "decreased; also recorded: downregulation"},
      {"measurement": "PDGFRβ (qPCR) in heart", "setting": "[7]", "value": "downregulation"},
      {"measurement": "PDGFRβ protein level in heart", "setting": "[7]", "value": "PDGFRβ loss"},
      {"measurement": "PDGFRβ in kidneys", "setting": "[7]; 20 mg/kg", "value": "decreased; also recorded: downregulation"},
      {"measurement": "PDGFRβ in liver", "setting": "[7]; 20 mg/kg", "value": "decreased; also recorded: downregulation"},
      {"measurement": "PDGFRβ in lungs", "setting": "[7]; 20 mg/kg", "value": "decreased; also recorded: downregulation"},
      {"measurement": "PDGFRβ in spleen", "setting": "[7]; 20 mg/kg", "value": "decreased; also recorded: downregulation"}
    ]}
  ]
}
